Results published in patent US11213497B2, “Antibiofilm formulations” (ARIZONA BOARD OF REGENTS ON BEHALF OF NORTHERN ARIZONA …, priority 2017, dated 2022).

Columns and labels:
MSSA = test: MBEC of geranic acid in solution (Hepes buffer); assay type: cell-based, Staphylococcus aureus; details: 50 mM Hepes buffer
Source text: Neutral species in DES may be uniquely important to potentiate otherwise bioactive IL. […] At this pH, most of the acid is expected to be found in the protonated state (pKa is ˜5-5.5 according to the literature). […] Many different DES can be envisioned with this same platform of 1:1 anion:cation as an EPS disruptor/delivery agent with a neutral acid (or even a completely neutral species such as an isoprenoid hydrocarbon) as a molecule designed to saturate both leaflets of a cellular membrane.

[1] = according to the literature; cited from earlier work
[2] = system: mammalian skin cell lines

Procedure for MSSA biofilms: Biofilms of Methicillin-sensitive Staphylococcus aureus (MSSA) were established on the pegs of a biofilm inoculator (Innovotech) according to the manufacturer's instructions. Briefly, a bacterial colony of MSSA was inoculated from an agar streak plate into cation-adjusted Mueller-Hinton broth (5 mL) and grown to confluence overnight in a shaker incubator (37° C., 200 rpm). The confluent culture was then diluted into fresh media (1:100, v:v), and grown to an optical density (OD) of 0.4 (approximately three hours). At this time, the cultures were again diluted into fresh media (1:50, v:v) and 200 μL of the resultant dilution were placed into each well of an Innovotech 96 well biofilm inoculator plate. The inoculator was added to the wells of the culture plate and it was placed in a shaker incubator overnight (37° C., 150 rpm). The spent media was decanted each morning and refreshed with equal volumes of new media, and the inoculator was again placed in a shaker incubator overnight (37° C., 150 rpm). […]
A 10% (v:v) stock solution of each DES in CAMHB was serially diluted into fresh CAMHB in the wells of a 96 well plate. […] MSSA cells were allowed to grow overnight in the shaker incubator and viability was assessed via measurement of optical density at 600 nm using a plate reader (Synergy HT). […]

For `CC(C)=CCC/C(C)=C/C(=O)O` [geranic acid], the MBEC (MSSA; pH=6.4, 0.1% Tween 20) is given as 2.5 % in water, the MBEC (MSSA; pH=8.4, 0.1% Tween 20) is given as > 10% and the pKa [1] is given as 5-5.5.

In the case of “Choline Geranate Ionic Liquid [2; CAGE (1:1)]”, the “MBEC (% by volume)” value (MSSA biofilms; 2-hour challenge, 72 hr MSSA biofilms, dilutions in CAMHB 0.313-10% (v:v)) is reported as 5-10 % by volume and the “MBEC against MSSA” value (MSSA biofilms; in water) is reported as 5-10%.

For choline geranate [CAGE], the “Toxicity to mammalian skin cell lines” value [2] was “generally non-toxic to mammalian skin cell lines”.
